Data: ChEMBL document CHEMBL1144514, “The design, synthesis, and biological evaluation of novel substituted purines as HIV-1 Tat-TAR inhibitors” (Bioorg Med Chem, 2007)

Key:
293T = assay: Inhibition of Tat-mediated transactivation in human 293T cells assessed as CAT expression at 30 uM; assay type: cell-based; settings: Human immunodeficiency virus 1
[1] = test system: Simian immunodeficiency virus; assay: Inhibition of SIV-induced cytopathogenicity in CEM174 cells; assay type: functional, organism-based
[2] = Cytotoxicity against CEM174 cells; assay type: cell-based; settings: human, read-out: TC50 (the source's name)
[3] = Selectivity index, ratio of EC50 for SIV infected CEM174 cells to TC50 for CEM174 cells; assay type: functional

Row | Structure (SMILES) | inhibition (293T) | EC50 [1] | CC50 [2] | Selectivity index [3]
1 | CCN(CC)c1nc(C)c2[nH]c(SCC(=O)NCCN)nc2n1 | 65.7% | 2 µM | > 100 µM | >50
2 | CCN(CC)CC[n+]1c(SCC(=O)NCCCN)[nH]c2c(C)nc(N(CC)CC)nc21 | 43.3% | 1.4 µM | > 100 µM | >71.4
3 | CCN(CC)c1nc(C)c2[nH]c(SCC(=O)NCCCN)[n+](CCCN(C)C)c2n1 | 48.7% | 0.2 µM | > 100 µM | >500
4 | CCN(CC)CC[n+]1c(SCC(=O)NCCCNC(=N)N)[nH]c2c(C)nc(N(CC)CC)nc21 | 36.2% | 4.7 µM | > 100 µM | >21.3
5 | CCN(CC)c1nc(C)c2[nH]c(SCC(=O)NCCN)[n+](CCCN(C)C)c2n1 | 57.7% | 3.4 µM | > 100 µM | >29.4
6 | Cc1cn([C@H]2C[C@H](N=[N+]=[N-])[C@@H](CO)O2)c(=O)[nH]c1=O [ZIDOVUDINE] |  | 0.0122 µM | > 100 µM | 
7 | CCN(CC)c1nc(C)c2[nH]c(SCC(=O)NCCCNC(=N)N)[n+](CCCN(C)C)c2n1 | 48.8% | 3.2 µM | > 100 µM | >31.25
8 | CCN(CC)c1nc(C)c2[nH]c(SCC(=O)NCCNC(=N)N)[n+](CCCN(C)C)c2n1 | 50.2% | 7.2 µM | > 100 µM | >13.9
9 | CCN(CC)c1nc(C)c2[nH]c(SCC(=O)NCCNC(=N)N)nc2n1 | 57.1% | 4.2 µM | > 100 µM | >23.8
10 | CCN(CC)CC[n+]1c(SCC(=O)NCCNC(=N)N)[nH]c2c(C)nc(N(CC)CC)nc21 | 34.9% | 0.7 µM | > 100 µM | >142.9
11 | CCN(CC)c1nc(C)c2[nH]c(SCC(=O)NCCCNC(=N)N)nc2n1 | 57.1% | 0.7 µM | > 100 µM | >142.9
12 | CCN(CC)CC[n+]1c(SCC(=O)NCCN)[nH]c2c(C)nc(N(CC)CC)nc21 | 43.1% | 1.3 µM | 52.2 µM | 40.2
13 | CCN(CC)c1nc(C)c2[nH]c(SCC(=O)NCCCN)nc2n1 | 58.4% | 0.5 µM | > 100 µM | >200
